The values that follow come from US11440899B2, “Pyrimidine TBK/IKKe inhibitor compounds and uses thereof” (Merck Patent GmbH, priority 2017, dated 2022).

For one assay, the target named is TBK1 (Homo sapiens (Human), UniProt Q9UHD2). In words: TBK Biochemical Assay. As for the experimental part: Example 106: TBK Biochemical Assay Test compounds were transferred into Labcyte polypropylene 384 well plates ([…]-25) and diluted to 3 mM using DMSO. 3 mM test compounds were dispensed using Labcyte ECHO dose response module into Greiner 784075 plates (columns 3-12 and 13-22, 10 point 1:4) so that high concentration was 30 uM final. 100 uM of a reference compound (1 uM final high concentration). Backfilling was performed if necessary so that all wells contain 1% DMSO final: add 75 nl DMSO/well into columns 1, 2 and 24 using Labcyte Echo. add 75 nl 1.0 mM staurosporine/well into column 23 using Labcyte Echo (10 uM final) add 4.5 ul enzyme/well using multidrop dispenser add 3 ul substrate/well using multidrop dispenser incubate at 25° C. in Heidolph incubator for 90 min. add 7.5 ul 2× stop buffer using multidrop dispenser read on labchip ez reader II using TBK1.job Raw data files were opened in the Caliper LabChip Reviewer program (Version 3.0.265.0 SP2) and peak assignments were adjusted to reflect “substrate first” with the software's post-run analysis options. A spline-fit baseline was applied using the software's analysis algorithm.

For a further assay, the target named is IKKe (Homo sapiens (Human), UniProt Q14164). In words: IKKe Biochemical Assay. As for the experimental part: IKKe Biochemical Assay Test compounds were transferred into Labcyte polypropylene 384 well plates ([…]-25) and diluted to 3 mM using DMSO. 3 mM test compounds were dispensed using Labcyte ECHO dose response module into Greiner 784075 plates (columns 3-12 and 13-22, 10 point 1:4) so that high concentration was 30 uM final. 100 uM of a reference compound (1 uM final high concentration). Backfilling was performed if necessary so that all wells contain 1% DMSO final: add 75 nl DMSO/well into columns 1, 2 and 24 using Labcyte Echo. add 75 nl 1.0 mM staurosporine/well into column 23 using Labcyte Echo (10 uM final) add 4.5 ul enzyme/well using multidrop dispenser add 3 ul substrate/well using multidrop dispenser incubate at 25° C. for 90 min. add 7.5 ul 2× stop buffer read on labchip ez reader II using IKKε. job Raw data files were opened in the Caliper LabChip Reviewer program (Version 3.0.265.0 SP2) and peak assignments were adjusted to reflect “substrate first” with the software's post-run analysis options. A spline-fit baseline was applied using the software's analysis algorithm.
Sequence of IKKe (Q14164 whole entry, species assumed): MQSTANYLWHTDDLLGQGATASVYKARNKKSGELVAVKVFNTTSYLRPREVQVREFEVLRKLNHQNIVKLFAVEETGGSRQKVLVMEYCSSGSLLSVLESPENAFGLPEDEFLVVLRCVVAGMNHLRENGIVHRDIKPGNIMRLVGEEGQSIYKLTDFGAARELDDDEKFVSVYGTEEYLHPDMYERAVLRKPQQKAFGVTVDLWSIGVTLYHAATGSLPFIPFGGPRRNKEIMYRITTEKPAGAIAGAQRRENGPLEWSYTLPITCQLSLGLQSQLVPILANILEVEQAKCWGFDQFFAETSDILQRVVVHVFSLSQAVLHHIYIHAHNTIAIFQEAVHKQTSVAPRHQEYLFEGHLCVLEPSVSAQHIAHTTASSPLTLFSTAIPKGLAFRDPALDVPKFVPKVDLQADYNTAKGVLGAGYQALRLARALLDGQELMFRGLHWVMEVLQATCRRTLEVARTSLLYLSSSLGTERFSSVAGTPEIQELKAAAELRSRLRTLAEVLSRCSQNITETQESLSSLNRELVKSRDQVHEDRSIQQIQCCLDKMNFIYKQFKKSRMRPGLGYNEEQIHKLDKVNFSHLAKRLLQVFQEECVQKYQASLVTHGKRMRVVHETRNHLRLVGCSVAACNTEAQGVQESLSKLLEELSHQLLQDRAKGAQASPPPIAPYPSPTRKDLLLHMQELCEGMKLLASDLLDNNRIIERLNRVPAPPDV

Sequence of TBK1 (Q9UHD2 whole entry, species assumed): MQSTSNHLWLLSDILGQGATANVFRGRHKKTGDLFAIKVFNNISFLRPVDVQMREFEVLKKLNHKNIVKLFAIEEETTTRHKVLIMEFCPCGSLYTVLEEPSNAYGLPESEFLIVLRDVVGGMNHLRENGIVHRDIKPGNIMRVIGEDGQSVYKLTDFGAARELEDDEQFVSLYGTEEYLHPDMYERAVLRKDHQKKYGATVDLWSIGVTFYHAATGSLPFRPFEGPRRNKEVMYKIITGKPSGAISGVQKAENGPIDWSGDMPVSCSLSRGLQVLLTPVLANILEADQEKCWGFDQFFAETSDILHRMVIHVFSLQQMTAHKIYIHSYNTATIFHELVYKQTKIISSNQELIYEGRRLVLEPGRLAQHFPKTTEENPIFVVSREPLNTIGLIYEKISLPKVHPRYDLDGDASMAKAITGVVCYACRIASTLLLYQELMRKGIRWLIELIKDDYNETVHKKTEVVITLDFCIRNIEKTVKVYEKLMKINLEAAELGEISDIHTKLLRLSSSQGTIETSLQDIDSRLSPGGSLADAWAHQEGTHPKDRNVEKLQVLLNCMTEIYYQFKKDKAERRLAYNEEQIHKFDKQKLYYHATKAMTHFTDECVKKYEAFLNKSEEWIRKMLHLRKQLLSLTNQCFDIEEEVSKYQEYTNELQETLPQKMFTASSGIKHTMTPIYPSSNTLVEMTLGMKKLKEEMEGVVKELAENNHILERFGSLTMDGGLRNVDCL

For `COc1nc(Nc2cc(-c3ccc(OC4CCOCC4)c(C#N)c3)ncn2)ccc1C(=O)N(C)C` [Example 1, 6-([6-[3-cyano-4-(oxan-4-yloxy)phenyl]pyrimidin-4-yl]amino)-2-methoxy-N,N-dimethylpyridine-3-carboxamide], the concentration for half-maximal inhibition (IC50) at TBK1 and against IKKe was less than 100 nM each time.

Regarding `COc1nc(Nc2cc(-c3ccc(OC4CCN(C(=O)[C@H](C)O)CC4(F)F)c(C#N)c3)ncn2)ccc1N1CCN(C2COC2)CC1` (stereo partly drawn) [Example 78, 2-([3,3-difluoro-1-[(2S)-2-hydroxypropanoyl]piperidin-4-yl]oxy)-5-[6-([6-methoxy-5-[4-(oxetan-3-yl)piperazin-1-yl]pyridin-2-yl]amino)pyrimidin-4-yl]benzonitrile], the IC50 against TBK1 and against IKKe was less than 100 nM in each case.

Take `COc1nc(Nc2cc(-c3ccc(OC4CCN(C(=O)[C@H](C)O)CC4(F)F)c(C#N)c3)ncn2)ccc1C1CCN(C2COC2)CC1` (stereo partly drawn) [Example 84, 2-([3,3-difluoro-1-[(2S)-2-hydroxypropanoyl]piperidin-4-yl]oxy)-5-[6-([6-methoxy-5-[1-(oxetan-3-yl)piperidin-4-yl]pyridin-2-yl]amino)pyrimidin-4-yl]benzonitrile]: the IC50 on TBK1 and against IKKe was less than 100 nM each time.

For `C[C@@H](O)C(=O)N1CCC(Oc2ccc(-c3cc(Nc4ccc(N5CCN(C6COC6)CC5)cc4)ncn3)cc2C#N)C(F)(F)C1` (stereo partly drawn) [Example 86, 2-([3,3-difluoro-1-[(2R)-2-hydroxypropanoyl]piperidin-4-yl]oxy)-5-[6-([4-[4-(oxetan-3-yl)piperazin-1-yl]phenyl]amino)pyrimidin-4-yl]benzonitrile], the concentration for half-maximal inhibition (IC50) (in general, the midpoint of a concentration-inhibition curve) against TBK1 is less than 100 nM; against IKKe, 100 to 1000 nM.

In the case of `COc1nc(Nc2cc(-c3ccc(OC4CCOCC4)c(C#N)c3)ncn2)ccc1CNC1CCN(C)CC1` [Example 19, 5-[6-[(6-methoxy-5-[[(1-methylpiperidin-4-yl)amino]methyl]pyridin-2-yl)amino]pyrimidin-4-yl]-2-(oxan-4-yloxy)benzonitrile], the half-maximal inhibitory concentration (IC50) against TBK1 and against IKKe was less than 100 nM in each case.

For the compound `COc1nc(Nc2cc(-c3cc(C#N)c(OC4CCOCC4)cn3)ncn2)ccc1N1CCN(C)CC1` [Example 21, 2-(6-[[6-methoxy-5-(4-methylpiperazin-1-yl)pyridin-2-yl]amino]pyrimidin-4-yl)-5-(oxan-4-yloxy)pyridine-4-carbonitrile], the IC50 against TBK1 and against IKKe was less than 100 nM in each case.

For `COc1nc(Nc2cc(-c3ccc(OC4CCN(C(=O)CO)CC4)c(C#N)c3)ncn2)ccc1C(=O)N(C)C` [Example 42, 6-[[6-(3-cyano-4-[[1-(2-hydroxyacetyl)piperidin-4-yl]oxy]phenyl)pyrimidin-4-yl]amino]-2-methoxy-N,N-dimethylpyridine-3-carboxamide], the 50% inhibitory concentration (IC50) against TBK1 and against IKKe was less than 100 nM in each case.

Take `COc1nc(Nc2cc(-c3ccc(OC4CCNCC4(F)F)c(C#N)c3)ncn2)ccc1N1CCN(C)[C@@H](C)C1` (stereo partly drawn) [Example 80, 2-[(3,3-difluoropiperidin-4-yl)oxy]-5-[6-({5-[(3S)-3,4-dimethylpiperazin-1-yl]-6-methoxypyridin-2-yl}amino)pyrimidin-4-yl]benzonitrile]: the 50% inhibitory concentration (IC50) against TBK1 and against IKKe was less than 100 nM in each case.

For `CN1CCN(c2ccc(Nc3cc(-c4ccc(OC5CCN(C)C5)c(C#N)c4)ncn3)nc2)CC1` (centres unmarked) [Example 40, 5-(6-[[5-(4-methylpiperazin-1-yl)pyridin-2-yl]amino]pyrimidin-4-yl)-2-[(1-methylpyrrolidin-3-yl)oxy]benzonitrile], the 50% inhibitory concentration (IC50) on TBK1 and on IKKe was 100 to 1000 nM each time.

For `COc1nc(Nc2cc(-c3ccc(OC4CCOCC4)c(C#N)c3)ncn2)ccc1C(=O)NC1C2COCC21` (centres unmarked) [Example 4, 6-([6-[3-cyano-4-(oxan-4-yloxy)phenyl]pyrimidin-4-yl]amino)-2-methoxy-N-[3-oxabicyclo[3.1.0]hexan-6-yl]pyridine-3-carboxamide], the IC50 against TBK1 and against IKKe was less than 100 nM in each case.

For `COc1nc(Nc2cc(-c3ccc(OC4CCNCC4(F)F)c(C#N)c3)ncn2)ccc1N1CCN(C2COC2)C[C@H]1C` (stereo partly drawn) [Example 69, 2-[(3,3-difluoropiperidin-4-yl)oxy]-5-[6-({6-methoxy-5-[(2R)-2-methyl-4-(oxetan-3-yl)piperazin-1-yl]pyridin-2-yl}amino)pyrimidin-4-yl]benzonitrile], the IC50 against TBK1 and against IKKe was less than 100 nM each time.

For the compound `COc1nc(Nc2cc(-c3ccc(OC4CN(C)C4)c(C#N)c3)ncn2)ccc1N1CCN(C)CC1` [Example 38, 5-(6-[[6-methoxy-5-(4-methylpiperazin-1-yl)pyridin-2-yl]amino]pyrimidin-4-yl)-2-[(1-methylazetidin-3-yl)oxy]benzonitrile], the half-inhibitory concentration (IC50) against TBK1 and at IKKe was less than 100 nM throughout.

In the case of `COc1nc(Nc2cc(-c3ccc(OC4CCOCC4)c(C#N)c3)ncn2)ccc1C(=O)N(C)CCO` [Example 2, 6-([6-[3-cyano-4-(oxan-4-yloxy)phenyl]pyrimidin-4-yl]amino)-N-(2-hydroxyethyl)-2-methoxy-N-methylpyridine-3-carboxamide], the IC50 against TBK1 and against IKKe was less than 100 nM each time.

As to `COc1nc(Nc2cc(-c3ccc(O[C@H]4CCNC[C@H]4F)c(C#N)c3)ncn2)ccc1C(=O)N(C)C` [Example 46, 6-[[6-(3-cyano-4-[[(3R,4S)-3-fluoropiperidin-4-yl]oxy]phenyl)pyrimidin-4-yl]amino]-2-methoxy-N,N-dimethylpyridine-3-carboxamide], the 50% inhibitory concentration (IC50) at TBK1 and on IKKe was 100 to 1000 nM each time.

Consider `COc1nc(Nc2cc(-c3ccc(O[C@H]4CCN(C(=O)[C@H](C)O)CC4(F)F)c(C#N)c3)ncn2)ccc1N1CCN(C2COC2)C[C@@H]1C` [Example 101, 2-[[(4S)-3,3-difluoro-1-[(2S)-2-hydroxypropanoyl]piperidin-4-yl]oxy]-5-[6-([6-methoxy-5-[(2S)-2-methyl-4-(oxetan-3-yl)piperazin-1-yl]pyridin-2-yl]amino)pyrimidin-4-yl]benzonitrile], for which the half-inhibitory concentration (IC50) against TBK1 and against IKKe was less than 100 nM each time.

Take `COc1nc(Nc2cc(-c3ccc(OC4CCOCC4)c(C#N)c3)ncn2)ccc1C1CCN(CC(F)F)CC1` [Example 28, 5-[6-([5-[1-(2,2-difluoroethyl)piperidin-4-yl]-6-methoxypyridin-2-yl]amino)pyrimidin-4-yl]-2-(oxan-4-yloxy)benzonitrile]: the IC50 at TBK1 and against IKKe was less than 100 nM each time.

On to `COc1nc(Nc2cc(-c3ccc(OC4CCN(C(=O)c5n[nH]c(C)n5)CC4)c(C#N)c3)ncn2)ccc1N1CCN(C)CC1` [Example 55, 5-(6-[[6-methoxy-5-(4-methylpiperazin-1-yl)pyridin-2-yl]amino]pyrimidin-4-yl)-2-([1-[(5-methyl-1H-1,2,4-triazol-3-yl)carbonyl]piperidin-4-yl]oxy)benzonitrile], for which the IC50 on TBK1 and on IKKe was less than 100 nM in each case.

With `COc1nc(Nc2cc(-c3ccc(OC4CN(C)C4)c(C#N)c3)ncn2)ccc1C(=O)N(C)C` [Example 37, 6-[(6-[3-cyano-4-[(1-methylazetidin-3-yl)oxy]phenyl]pyrimidin-4-yl)amino]-2-methoxy-N,N-dimethylpyridine-3-carboxamide], the IC50 against TBK1 and on IKKe was 100 to 1000 nM in each case.

Turning to `C[C@H](O)C(=O)N1CCC(Oc2ccc(-c3cc(Nc4ccc(N5CCN(C6COC6)CC5)cc4)ncn3)cc2C#N)C(F)(F)C1` (stereo partly drawn) [Example 85, 2-([3,3-difluoro-1-[(2S)-2-hydroxypropanoyl]piperidin-4-yl]oxy)-5-[6-([4-[4-(oxetan-3-yl)piperazin-1-yl]phenyl]amino)pyrimidin-4-yl]benzonitrile], the IC50 against TBK1 and against IKKe was less than 100 nM throughout.

Consider `COc1nc(Nc2cc(-c3ccc(OC4CCOCC4)c(C#N)c3)ncn2)ccc1N1CCN(CC(F)F)CC1` [Example 14, 5-[6-([5-[4-(2,2-difluoroethyl)piperazin-1-yl]-6-methoxypyridin-2-yl]amino)pyrimidin-4-yl]-2-(oxan-4-yloxy)benzonitrile], for which the 50% inhibitory concentration (IC50) at TBK1 and against IKKe was less than 100 nM in each case.

`COc1nc(Nc2cc(-c3ccc(O[C@@H]4CCN(C(=O)CO)CC4(F)F)c(C#N)c3)ncn2)ccc1N1CCN(C)CC1` [Example 61, 2-[[(4R)-3,3-difluoro-1-(2-hydroxyacetyl)piperidin-4-yl]oxy]-5-(6-[[6-methoxy-5-(4-methylpiperazin-1-yl)pyridin-2-yl]amino]pyrimidin-4-yl)benzonitrile] displayed an IC50 at TBK1 of less than 100 nM.
